Experimental data from PubChem BioAssay AID1963432 (Molecular Pharmacology Branch, DTP, NCI, 2024).
Where “and” joins values, the source holds several entries; their conditions need not be identical. Equal values may be shown once.

Test system: SYO-1 complex spheroid growth, percent test/control
Experiment: Anticancer human tumor SYO-1 cell line growth inhibition [Asc];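 note: compound exposure lasted 7 days after spheroids grew 3 days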;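 for viability, T/C: 100% = DMSO vehicle control viability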
Settings: for viability, T/C: stronger effect = lower value
Procedure: Multicellular complex tumor spheroid response to apoptosis pathway targeting inhibitors Alrizomadlin, Pelcitoclax, and Dasminapant in combination with a variety of drugs and investigational agents in selected tumor cell lines
The MDM2 inhibitor alrizomadlin, the Bcl-2/Bcl-xL inhibitor pelcitoclax, and the IAPs inhibitor dasminapant were evaluated both individually and in combination with standard of care and investigational anticancer small molecules within a complex spheroid model of solid tumors. . Complex spheroids include a stromal component modeled by human endothelial cells (HUVEC) and fibroblasts modeled by human mesenchymal stem cells (MSCs). The concentration ranges selected for each drug and investigational agent were based upon clinically achievable concentrations if the clinical Cmax of the agent was known.
Compounds. The drugs and investigational agents: alrizomadlin (APG-115; NSC831270), pelcitoclax (APG-1252; NSC835773), dasminapant (APG-1387;NSC834197), TAK-243 (NSC785004), copanlisib (NSC809693), olaparib (NSC753686), talazoparib (NSC767125), cobimetinib (NSC 768068), eltanexor (KPT-8602, NSC 794443), abemaciclib (NSC 768073), sotorasib (NSC818433), adagrasib (NSC 831453), MRTX-1133 (NSC 836407), Iadademestat (ORY1001, NSC 806812), and RMC-4630 (NSC839698), were obtained from the NCI Developmental Therapeutics Program Chemical Repository. The FDA-approved anticancer drug set is available from the Developmental Therapeutics Program at https://dtp.cancer.gov/organization/dscb/obtaining/available plates.htm. […] The stock solutions were prepared in dimethyl sulfoxide (DMSO, Sigma-Aldrich, St. Louis, MO, cat. D2650) at 800-fold the tested concentration and stored at -70 degrees C prior to their use. All drugs and investigational agents were tested over a range starting from a high concentration at or near the clinical Cmax and decreasing in half-log increments. If the clinical Cmax for an agent had not been determined, the highest concentration tested was 10 microM.
The patient-derived cancer (PDC) cell lines include five colon adenocarcinomas: 186277-243-T-J2-PDC, 616215-338-R-J1-PDC, 439559-082-T-J2-PDC, 463943-066-T-J2-PDC, and 519858-162-T-J1-PDC; three pancreatic carcinomas: 323965-272-R-J2-PDC, 521955-158-R6-J3-PDC, and 521955-158-R2-J5-PDC; two uterine sarcomas: 327498-152-R-J2-PDC and 993429-296-R-J1-PDC; two rhabdomyosarcomas: 755483-174-R-J1-PDC and 772245-204-R-J1-PDC; two soft tissue sarcomas: 126254-015-R-J1-PDC and 494315-158-R-J1-PDC; two malignant fibrous histiocytomas: 317291-083-R-J1-PDC and 596521-263-R-J1-PDC; two breast carcinomas: 171881-019-R-J1-PDC and 885512-296-R-J2-PDC; and one ovarian carcinoma: 6556581-035-R-J-PDC were obtained from the NCI PDMR, (https://pdmr.cancer.gov). The established cell lines HSSY-2 synovial sarcoma (RRID:CVCL 8719), SYO-1 synovial sarcoma (RRID:CVCL_7146), MPNST malignant peripheral neural sheath tumor were obtained from the Sloan Kettering Institute. The following established cell lines were purchased from the American Type Culture Collection (ATCC, Manassas, VA), Sor the received from the NCI repository:, PANC-1 pancreatic carcinoma (CRL-1469, RRID:CVCL_0480), OVCAR-5 ovarian carcinoma (RRID:CVCL_1628), OVCAR-8 ovarian carcinoma (RRID:CVCL_1629), , MCF-7 breast carcinoma (CRL-12584, RRID:CVCL_0031), MDA-MB-231 breast carcinoma (CRL-12532, RRID:CVCL_0062), NCI-H1876 small cell lung carcinoma (CRL-5902, RRID:CVCL_1503), NCI-H510A small cell lung carcinoma (HTB-184, RRID:CVCL_1565), NCI-H1417 (CRL-5869, RRID:CVCL_1469), and NCI-H196 small cell lung carcinoma (CRL-5823, RRID:CVCL_1509). Dr. Peter Houghton (Greehey Children's Cancer Research Institute, University of Texas Health Science Center, San Antonio, TX) provided Rh-18 rhabdomyosarcoma (RRID:CVCL_1659). Pooled donor human umbilical vein endothelial cells (HUVEC, Lonza, cat. CC-2519) and human mesenchymal stem cells (hMSC, Lonza, cat. PT-2501) were purchased from Lonza (Walkersville, MD).
Cell Culture. […]

[1] = compound alone, run of 11/07/2022

Structure (SMILES)	viability, T/C (compound 0.0316 µM)	viability, T/C (compound 0.1 µM)	viability, T/C (compound 0.316 µM)	viability, T/C (compound 1 µM)	viability, T/C (compound 3.16 µM)	viability, T/C (compound 10 µM)	IC50 (curve of compound)	viability, T/C (compound 0.00316 µM)	viability, T/C (compound 0.01 µM)	further results
C#Cc1c(F)ccc2cc(O)cc(-c3ncc4c(N5CC6CCC(C5)N6)nc(OCC56CCCN5CC(F)C6)nc4c3F)c12 (centres undefined)	111% and 98.5% and 108%	95.5% and 92.2% and 96.9%	108% and 95.5% and 110%	98.9% and 101% and 109%	111% and 117% and 105%	105% and 97.4% and 103%	> 10 µM			
C=C(F)C(=O)N1CCN(c2nc(OCC3CCCN3C)nc3c2CCN(c2cccc4cccc(Cl)c24)C3)CC1CC#N (centres undefined)	107% and 98.8% and 99.1%	102% (2×) and 96.3%	97.5% and 101% and 100%	95.2% and 101% and 113%	97.3% and 90.3% and 92.2%	0.28% and 0.79% and 0.39%	5.54 µM and 5.31 µM and 5.37 µM			
C=CC(=O)N1CCN(c2nc(=O)n(-c3c(C)ccnc3C(C)C)c3nc(-c4c(O)cccc4F)c(F)cc23)C(C)C1 (centres undefined)	100% and 96.9% and 116%	108% and 98.8% and 106%	104% (2×) and 99.7%	103% (2×) and 104%	98.7% and 95.2% and 101%	94.3% and 87.2% and 89.7%	> 10 µM			
CCN1C(C(=O)NC23CCC(C(=O)O)(CC2)CC3)C(c2cccc(Cl)c2F)C2(C(=O)Nc3cc(Cl)ccc32)C12CCCCC2 (centres undefined)							0.142 µM and 0.178 µM			viability, T/C (compound 0.00949 µM): 103% [middle of 9 runs]; viability, T/C (compound 0.03 µM): 99.3% [middle of 9 runs]; viability, T/C (compound 0.3 µM): 25.9% [middle of 9 runs]; viability, T/C (compound 0.949 µM): 3.45% [middle of 9 runs]; viability, T/C (compound 3 µM): 1.23% [middle of 9 runs]; IC50 [1]: 189 nM [middle of 7 runs]
CCN1CCN(Cc2ccc(Nc3ncc(F)c(-c4cc(F)c5nc(C)n(C(C)C)c5c4)n3)nc2)CC1	107% and 106% and 109%	114% and 118% and 115%	115% and 128% and 112%	106% and 111% and 112%			> 1 µM	103% (2×) and 101%	99.9% and 103% and 110%	
CNC(C)C(=O)NC1CN(S(=O)(=O)c2cccc(S(=O)(=O)N3CCC4CCC(C(=O)NC(c5ccccc5)c5ccccc5)N4C(=O)C(NC(=O)C(C)NC)C3)c2)CCC2CCC(C(=O)NC(c3ccccc3)c3ccccc3)N2C1=O (centres undefined)	98.2% [middle of 14 runs]		98.7% [middle of 14 runs]	96.6% [middle of 14 runs]			> 1 µM	109% and 90.1% and 99.2%	102% [middle of 14 runs]	IC50 (compound alone, run of 10/24/2022): > 1 µM; IC50 (compound alone, run of 11/15/2022): > 1 µM
COc1c(OCCCN2CCOCC2)ccc2c3n(c(=NC(=O)c4cnc(N)nc4)nc12)CCN3	95.3% and 108% and 113%	95.4% and 101% and 107%	76.1% and 87.7% and 90.5%	40.2% and 46.1% and 63.6%			0.741 µM and 0.9 µM and > 1 µM	111% and 102% and 109%	105% and 112% and 114%	
Cc1c(S(C)(=O)=O)c(-c2cc(F)cc(N3CCN(c4ccc(NS(=O)(=O)c5ccc(NC(CCN6CCC(C(=O)OCCCP(=O)(O)O)CC6)CSc6ccccc6)c(S(=O)(=O)C(F)(F)F)c5)cc4)CC3)c2)c(-c2ccc(Cl)cc2)n1C(C)C (centres undefined)	102% [middle of 7 runs]	100% [middle of 7 runs]	96.5% [middle of 7 runs]	90.6% [middle of 7 runs]	88.6% [middle of 7 runs]	79% [middle of 7 runs]				IC50 [1]: > 10 µM
Cc1nc(N2CCC3(CC2)COC(C)C3N)c(CO)nc1Sc1ccnc(N)c1Cl (centres undefined)							> 3 µM			viability, T/C (compound 0.00949 µM): 107% and 98.7% and 112%; viability, T/C (compound 0.03 µM): 112% and 94% and 111%; viability, T/C (compound 0.0949 µM): 107% and 116% and 103%; viability, T/C (compound 0.3 µM): 108% and 109% (2×); viability, T/C (compound 0.949 µM): 112% and 114% and 107%; viability, T/C (compound 3 µM): 103% and 100% and 109%
Cn1ncnc1[C@H]1c2n[nH]c(=O)c3cc(F)cc(c23)N[C@@H]1c1ccc(F)cc1	53.5% and 74.9% and 64.4%	15% and 91.9% and 12.5%					0.0348 µM and > 0.1 µM and 0.0435 µM	104% and 97.3% and 107%	87.3% and 95.5% and 98.1%	viability, T/C (compound 0.000316 µM): 105% and 109% and 104%; viability, T/C (compound 0.001 µM): 103% and 106% and 95.2%
NC(=O)C(=Cn1cnc(-c2cc(C(F)(F)F)cc(C(F)(F)F)c2)n1)c1cncnc1							0.18 µM and 0.183 µM and 0.257 µM			viability, T/C (compound 0.000949 µM): 97.3% and 93.8% and 106%; viability, T/C (compound 0.003 µM): 98.8% and 101% and 104%; viability, T/C (compound 0.00949 µM): 97.4% and 98% and 95.6%; viability, T/C (compound 0.03 µM): 96.9% and 95.8% and 107%; viability, T/C (compound 0.0949 µM): 95.9% and 94.2% and 99.5%; viability, T/C (compound 0.3 µM): 13.3% and 16.5% and 42.3%
NC1CCC(NC2CC2c2ccccc2)CC1 (centres undefined)	91.9% and 96.6% and 88.2%	90.8% and 84.5% and 86.5%					> 0.1 µM	90.9% and 95.4% and 93.3%	94.7% and 89.3% and 92.9%	viability, T/C (compound 0.000316 µM): 108% and 106% and 112%; viability, T/C (compound 0.001 µM): 102% and 97% and 97.1%
O=C(c1cc(Cc2n[nH]c(=O)c3ccccc23)ccc1F)N1CCN(C(=O)C2CC2)CC1	96.5% and 98.2% and 111%	91.4% and 91.9% and 103%	102% and 99.6% and 101%	96.7% and 105% and 95.2%	38% and 49.1% and 73.5%	6.76% and 6.7% and 10.1%	2.5 µM and 3.1 µM and 4.81 µM			
O=C(c1ccc(F)c(F)c1Nc1ccc(I)cc1F)N1CC(O)([C@@H]2CCCCN2)C1	103% (2×) and 102%	108% (2×) and 102%	111% and 99.2% and 96.4%	104% and 106% and 101%			> 1 µM	105% and 97.6% and 106%	104% and 97% and 105%	
